Molecular target: Fasciola hepatica TIM (FhTIM) (Fasciola hepatica, UniProt S4UI50)
Test: Inhibition of recombinant FhTIM, coupled enzyme assay
Assay type: biochemical
Conditions: Figure 1, ranges of inhibitory activity; read-out: IC50 range
Procedure: Expression and purification of proteins: FhTIM, RabbitTIM and HsTIM were expressed in Escherichia coli and purified as described in the literature[31],[37]. […] Before use, extensive dialysis against 100 mM triethanolamine/10 mM EDTA (pH 7.4) was performed. […] Enzymatic activity was determined following the conversion of glyceraldehydes-3-phosphate into dihydroxyacetone phosphate in a coupled enzyme assay. The decrease in absorbance at 340 nm was followed in a multiplate reader VarioskanTM Flash Multimode Reader (Thermo ScientificTM, Waltham, MA, USA) at 38 °C. The reaction mixture (1 mL, pH 7.4) contained 100 mM triethanolamine, 10 mM EDTA, 0.2 mM NADH, 1 mM glyceraldehydes-3-phosphate and 0.9 units of α-glycerol phosphate dehydrogenase. The reaction was initiated by the addition of 5 ng/mL of the TIM of interest. For the inhibition studies, TIM was incubated at a concentration of 5 mg/mL in a buffer containing 100 mM triethanolamine, 10 mM EDTA, pH 7.4 and 10% of DMSO at 37 °C for 1 h. The mixture also contained the compounds, dissolved in DMSO, at the indicated concentrations. After 1 h, 10 µL were withdrawn and added to a final volume of 100 µL of the reaction mixture for the activity assay. The inhibition assay was performed in a 96-well microplate. […] The experiments were performed in triplicate in two independent experiments.

Sequence of Fasciola hepatica TIM (FhTIM) (S4UI50 entry or part of it): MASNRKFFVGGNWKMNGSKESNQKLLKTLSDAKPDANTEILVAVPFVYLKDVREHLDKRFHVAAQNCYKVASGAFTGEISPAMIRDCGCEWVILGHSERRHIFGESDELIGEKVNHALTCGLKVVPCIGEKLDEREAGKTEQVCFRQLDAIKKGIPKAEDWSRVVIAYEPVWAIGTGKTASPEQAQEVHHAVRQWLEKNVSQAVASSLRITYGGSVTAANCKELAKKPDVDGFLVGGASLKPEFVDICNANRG

SMILES | IC50 [µM]
[O-][n+]1c2ccc(O)cc2[n+]([O-])c2cc(Cl)c(Cl)cc21 [Compound 183] | < 50

Same assay, conditions: Table 1S, screening of 340 compounds in FhTIM; table head prints no unit, µM per b8/b9

SMILES | IC50 [µM]
Clc1ccc(-c2c[se]c(=NN=CC=Cc3ccco3)n2CCN2CCOCC2)cc1 [Compound 1097] | 50 to 100

Same assay, conditions: Table 1S, screening of 340 compounds in FhTIM; table head prints no unit, µM per b8/b9; read-out: IC50

SMILES | IC50 [µM]
O=C1CSC(=NN=Cc2ccc([N+](=O)[O-])s2)N1 [Compound 258] | > 100
NC(=NO)c1ccc(Br)cc1 [Compound 1105] | > 100
S=C(NN=Cc1ccccc1)Nc1ccccc1 [Compound 278] | > 100
C=CCn1c(-c2ccc(OC)cc2)csc1=NN=Cc1ccc([N+](=O)[O-])s1 [Compound 132] | > 100
O=C(/C=C/c1ccco1)N1CCN(C/C=C/c2ccccc2)CC1 [Compound 50] | > 100
COc1ccc(CN2c3nc(-c4ccccc4OC)[nH]c3C(N)=NS2(=O)=O)cc1 [Compound 707] | > 100
C=CCN1C(=O)CSC1=NN=Cc1ccc([N+](=O)[O-])s1 [Compound 129] | > 100
O=C1/C(=C/C=C/c2ccco2)CCC/C1=C\C=C\c1ccco1 [Compound 1019] | 50 to 100
C(=Cc1ccco1)C=NN1CCN(Cc2ccccc2)CC1 [Compound 874] | > 100
C=CCn1c(-c2csc(=NN=Cc3ccc(S(=O)(=O)O)o3)n2-c2ccccc2)csc1=NN=CC=Cc1ccco1 [Compound 785] | > 100
Cc1ccc(C=CC=NN2CCN(CC=Cc3ccccc3)CC2)o1 [Compound 903] | > 100
C=CCn1c(C)csc1=NN=Cc1ccco1 [Compound 1110] | > 100
O=c1cc(-c2ccccc2)oc2ccccc12 [Compound 148] | > 100
CCOC(=O)c1nc2ccc([N+](=O)[O-])cc2n1OC(=O)OCC(C)C [Compound 545] | 100
CCN(CC)CCCNS(=O)(=O)NCCCN(CC)CC [Compound 125] | > 100
O=[N+]([O-])c1ccc2c(c1)c(OCc1ccccc1)nn2CCCCCN1CCN(CC=Cc2ccccc2)CC1 [Compound 505] | > 100
CC(C=CC(=O)C=CC(C)=Cc1ccco1)=Cc1ccco1 [Compound 809] | > 100
C=CCn1c(-c2ccc([N+](=O)[O-])cc2)csc1=NN=C/C=C/c1cccs1 [Compound 907] | > 100
O=C1C(=Cc2ccccc2)CCC1=Cc1ccccc1 [Compound 1247] | 50 to 100
COc1cc(/C=C/C(=O)CC(=O)/C=C/c2cc(OC)c3oc(=O)cc(C)c3c2)ccc1O [Compound 915] | > 100
NNC(=O)Nc1ccc(Cl)cc1 [Compound 397] | > 100

SMILES | IC50 [µM]
O=[N+]([O-])c1ccc(C=Cc2ccc3nonc3c2)cc1 [Compound 584] | > 100
Clc1ccc(-c2csc(NN=CC=Cc3ccco3)n2)cc1 [Compound 901] | > 100
C=CCn1c(-c2csc(=NN=CC=Cc3ccccc3)n2-c2ccccc2)csc1=NN=CC=Cc1ccco1 [Compound 791] | > 100
C=CCNC(=S)NN=CC=Cc1ccccc1 [Compound 300] | > 100
C=CCn1c(-c2ccc(OC)cc2)csc1=NN=CC=Cc1ccco1 [Compound 871] | > 100
C(=Cc1ccccc1)CCN1CCN(CCC=Cc2ccccc2)CC1 [Compound 1119] | > 100
CC12CCC(O)CC1=CCC1C2CCC2(C)C(C(=O)C=CC=Cc3ccccc3)CCC12 (stereo not drawn) [Compound 1279] | > 100
COc1nn(CCOCCN2CCN(CC=Cc3ccccc3)CC2)c2ccc([N+](=O)[O-])cc12 [Compound 198] | > 100
O=[N+]([O-])c1ccc2c(c1)c(O)nn2Cc1ccccc1CN1CCCCC1 [Compound 456] | > 100
COc1ccc(CNCC(=O)O)cc1 [Compound 659] | > 100
O=C(C=CC=Cc1ccccc1)C=CC=Cc1ccccc1 [Compound 797] | > 100
Cc1nnc[n+]([O-])c1C=Cc1ccc([N+](=O)[O-])o1 [Compound 359] | > 100
[O-][n+]1onc2ccccc21 [Compound 1197] | > 100
O=C(O)c1ccc(Cl)[n+]([O-])c1 [Compound 472] | > 100
NN1CCSCC1 [Compound 616] | > 100
O=C1C(=CC=Cc2cccs2)CCCC1=CC=Cc1cccs1 [Compound 1245] | > 100
C=CCn1c(-c2ccccc2)csc1=NN=Cc1ccc(S(=O)(=O)O)o1 [Compound 876] | > 100
CC(=NNC(N)=O)c1cccc(C(C)=NNC(N)=O)n1 [Compound 701] | > 100
C=CCn1c(-c2ccc(Cl)cc2)csc1=NN=Cc1ccc([N+](=O)[O-])s1 [Compound 145] | > 100
C=CCn1c(-c2csc(=NN=Cc3ccccc3)n2-c2ccccc2)csc1=NN=Cc1ccc2ccccc2c1 [Compound 783] | > 100
N#Cc1c2ccccc2[n+]([O-])n1CCCl [Compound 483] | > 100

SMILES | IC50 [µM]
NS(=O)(=O)NCc1ccccc1 [Compound 124] | > 100
C=CCn1c(-c2ccc(Cl)cc2)csc1=NN=Cc1ccc(Cl)cc1 [Compound 265] | > 100
[O-][n+]1onc2ncc(Cl)cc21 [Compound 671] | > 100
C=CCNC(=S)NN=Cc1cncc(Br)c1 [Compound 307] | > 100
Nc1ccc2c(c1)[n+]([O-])c1cc(Cl)ccc1[n+]2[O-] [Compound 184] | > 100
Cc1nnc[n+]([O-])c1/C=C/c1ccc(Cl)cc1 [Compound 211] | > 100
NC(N)=N/N=C/c1ccc(O)cc1 [Compound 675] | 50 to 100
C=CCNC(=S)NN=CC=Cc1ccc([N+](=O)[O-])s1 [Compound 142] | > 100
NNC(=O)c1ccncc1 [Compound 1120] | > 100
O=[N+]([O-])c1ccc(C=NN=c2[nH]c(-c3ccc(Cl)cc3)cs2)s1 [Compound 267] | > 100
COc1nn(CCOCCN(C)C)c2ccc([N+](=O)[O-])cc12 [Compound 474] | > 100
C=CCn1c(-c2ccc(Br)cc2)csc1=NN=C/C=C/c1cccs1 [Compound 1137] | 50 to 100
O=C1C(=C2Nc3ccccc3C2=O)Nc2ccccc21 [Compound 879] | > 100
O=C1C(=CC=Cc2ccco2)CCC1=CC=Cc1ccco1 [Compound 1223] | 50 to 100
O=C1CC(=O)N(CCc2ccccc2)S(=O)(=O)N1CCc1ccccc1 [Compound 127] | > 100
Cc1nnc[n+]([O-])c1C=Cc1ccc2c(c1)OCO2 [Compound 216] | > 100
C=CCn1c(-c2ccccc2)csc1=NN=CC=Cc1ccco1 [Compound 276] | > 100
N#Cc1c2ccccc2[n+]([O-])n1-c1ccc2ccccc2c1 [Compound 202] | > 100
O=C1CSC(=NN=C/C=C/C=C/c2cccs2)N1c1ccccc1 [Compound 313] | > 100
C=CCNC(=S)NN=C(C=CC=Cc1ccc(C)o1)C=CC=Cc1ccc(C)o1 [Compound 900] | > 100
O=C(NN=Cc1ccccc1O)c1ccc(Cl)cc1 [Compound 1249] | > 100

SMILES | IC50 [µM]
Cc1c(C=Cc2ccc(N(C)C)cc2)[n+]([O-])cn[n+]1[O-] [Compound 219] | > 100
Cc1ccc(-n2c(C#N)c3ccccc3[n+]2[O-])cc1 [Compound 476] | > 100
C(=Cc1ccco1)C=NN1CCN(CC=Cc2ccccc2)CC1 [Compound 912] | > 100
COC(=O)NN=Cc1ccc2nonc2c1 [Compound 31] | > 100
O=[N+]([O-])c1ccc(C=NN=c2scc(-c3ccccc3)n2-c2ccccc2)s1 [Compound 268] | > 100
C=CCn1c(C(=O)N2CCN(C)CC2)csc1=NN=C/C=C/c1ccco1 [Compound 1093] | > 100
O=C(C=Cc1cccc2ccccc12)c1ccccc1 [Compound 1266] | > 100
Nc1nc(-c2ccccc2)cs1 [Compound 810] | > 100
CSc1ccc(C=CC(=O)c2ccc([N+](=O)[O-])cc2)cc1 [Compound 1155] | > 100
C(=Cc1ccco1)C=NN=CC=Cc1ccco1 [Compound 1140] | > 100
Cc1nnc(C)[n+]([O-])c1C=Cc1ccc(N(C)C)cc1 [Compound 213] | > 100
CCCN(CCCCCn1nc(OCc2ccccc2)c2cc([N+](=O)[O-])ccc21)CCC(C)C1CC=C(C)CC1 (stereo not drawn) [Compound 199] | > 100
CN(C)c1ccncc1 [Compound 1101] | > 100
CC(=O)Nc1ccc(C=NO)cc1 [Compound 1106] | > 100
O=C1CC(=O)N(Cc2ccccc2)S(=O)(=O)N1Cc1ccccc1 [Compound 358] | > 100
O=C1C(=CC=Cc2cccs2)CCC1=CC=Cc1cccs1 [Compound 1018] | > 100
[O-][n+]1onc2cc(F)c(F)cc21 [Compound 627] | > 100
CN(C)CCCCCn1nc(O)c2cc([N+](=O)[O-])ccc21 [Compound 477] | > 100
C=CCn1c(C)csc1=NN=Cc1cccs1 [Compound 274] | 50 to 100

Same assay, conditions: recombinant FhTIM, 1 h incubation with compound at 37 °C; read-out: IC50

SMILES | IC50 [µM]
CN(C)CCCNS(=O)(=O)NCCCN(C)C [Compound 121] | 50 ± 9
[O-][n+]1c2ccc(O)cc2[n+]([O-])c2cc(Cl)c(Cl)cc21 [Compound 183] | 25 ± 3
Nc1ccc2nc3ccc(F)cc3nc2c1 [Compound 1149] | 50 ± 6

— paper PMC7018972, “Novel and selective inactivators of Triosephosphate isomerase with anti-trematode activity” (Scientific Reports, 2020)
